Assay results from patent US8911953B2, “TDF-related compounds and analogs thereof, analogs and bioactive fragments” (Thrasos Innovation, Inc., priority 2005, dated 2014).
Positions of bridges follow the written chain, without caps; N, C: chain ends. No end group written: not given here.

Key:
UUO mice = assay: Unilateral ureteral obstruction (UUO) mouse model of chronic renal injury; format: in vivo
Protocol: Schematic of the unilateral urinary obstruction (UUO) mouse model of chronic renal injury. One ureter was ligated on Day 0 (D0) and mice received one of the following treatments: vehicle (control), BMP-7 by intraperitoneal (ip) administration (positive control) or TDFRP by ip, intravenous (iv) or oral (po) administration. Mice were sacrificed on Day 5 (D5) or Day 7 (D7) and the kidneys were evaluated for disease pathology.
Unilateral ureteral obstruction (UUO) is a model resembling human obstructive nephropathy, which represents an inducible chronic model of interstitial fibrosis. UUO is induced by ligation of one ureter, leaving the contra-lateral kidney to serve as a control. As a result of the procedure, mice develop renal tubulointerstitial inflammation, tubulointerstitial fibrosis and tubular atrophy, without hypertension, proteinuria, lipid dysregulation and little glomerular damage contributing to the disease state (Ito et al (2004). J. Urol. February; 171(2 Pt 1): 926-30.; Bhangdia et al. (2003) J. Urol. November; 170(5): 2057-62.; Rawashdeh et al. (2003) Invest Radiol. 2003 March; 38(3): 153-8.; Hruska et al (2000) Am J Physiol Renal Physiol. 2000 July; 79(1): F130-43.). Furthermore, renal fibrosis is associated with alteration of epithelial and fibroblastic cells to myofibroerblasts, along with increased expression of TGF-beta and progressive loss of renal function.

[1] = test system: rats with coronary artery ligation; assay: Left anterior descending (LAD) coronary occlusion model of myocardial injury; format: in vivo, rat; conditions: for reduction in AN/AR ratio as compared to PBS-treated animals: Day 7
Protocol: Schematic of the Left Anterior Descending […] (LAD) occlusion model of myocardial injury. The image represents a cross section through the heart of rats showing that treatment with TDFRP or BMP prevents ischemic injury. Left anterior descending arteries were occluded for 20 minutes to induce ischemia. Upon removal of the ligature, blood flow into the heart causes reperfusion injury and apoptosis. After seven days, the heart was stained with Evan's blue dye to differentiate the perfused, unaffected area from the occluded region (area at risk). Four doses of TDFRP (SEQ ID NO:45) were used in the treated animals (pre-occlusion, and 24, 48 and 72 hrs post-occlusion). A) left anterior descending coronary artery ligated to create ischemia, B) infarct areas (IA), C) the unaffected, perfused region. Dyed blue at sacrifice, D) ventricular lumen, E) approximate regional boundary, F) the affected (ischemic) region (AR). Where reperfusion injury leads to apoptosis
The efficacy of TDFRP compound (SEQ ID NO:45) in ameliorating the effects of myocardial ischemia was investigated in the rat after ligation of the coronary artery. […] unmanipulated rats, sorted into two large groups by initial body weight (>300 g pre-surgery) were evaluated. Fourteen rats underwent surgery on week, 12 rats underwent surgery on week 2 and rats were sorted into 3 treatment groups: Group 1, PBS; Group 2, positive control TDF-1; Group 3, test article TDFRP (SEQ ID NO:45) (see Table 13).
Three days prior to surgery, a serum sample was collected from the tail vein of each rat (pre-bleed). On the day of surgery, each rat was administered compound intravenously 2 hr prior to surgery. Surgery was performed sequentially after intubation and ventilation with 0.5% isofluorane anesthetic. Lead II ECG was monitored throughout the surgery. A thoracotomy was performed and the main left coronary artery was occluded for 20 min using a snare technique (FIG. 19). Successful occlusion of the artery was confirmed by ST elevation in lead II ECG within the first 5 minutes of ligation, and by frequent ventricular arrhythmia after 10 minutes of ligation. The snare was released to restore blood flow. The original suture loop was left in place for subsequent re-occlusion on Day 7. After initiation of reperfusion, the chest cavity was closed with 2 layers of suture. Rats were weaned from the ventilator and observed until fully conscious and mobile. Antibiotic (QD) and analgesic (Q8D) were provided. Additional serum samples were collected 6, 24, 72 and 120 hours post occlusion. Additional compound, positive control or vehicle treatments were delivered by intravenous injection in the tail vein at 24, 72 and 120 hours post occlusion.
On Day 7, each rat was anesthetized (ketamine:xyline), the chest cavity re-opened and a terminal blood sample (1 ml) was withdrawn from the abdominal vein. Gross pathology (i.e. inflammation) was noted and graded on a 4 point inflammation scale: 0=no inflammation, 1=slight, 2=moderate, 3=severe and 4=complete pericarditis. The left coronary artery was then re-occluded using the existing stitch and a concentrated solution of Evans Blue dye in saline (20 mg/ml; 0.5 ml/rat) was injected into the heart apex to stain the non-ischemic cardiac tissue blue. The heart was then arrested by injection of a saturated solution of potassium chloride into the right ventricle. The heart was then excised, wrapped in cellophane and stored at −20° C. for 1.5 hour. The cold heart was cut into 10 cross-sectional slices (2 mm/slice) and each section was numbered and incubated separately in triphenyltetrazolium chloride (1% TTC in PBS) for 10 minutes at 37° C. prior to fixing in 4% formaldehyde. Subsequently, each slice was photographed. For each slice, the “area at risk (AR)” and the “area occupied by necrosis (AN)” were measured by morphometry. The ratio of AN to AR is a measure of the degree of damage resulting from the occlusion (FIG. 20).

Molecule | severity of tubular damage (percent of renal tubular degradation) (UUO mice; 5-day model, administered orally, ip or iv) | progression of tubulointerstitial fibrosis disease (UUO mice; 5-day model, oral 5 mg/kg/24 hours or iv 50 mg/kg/24 hours) | progression of tubulointerstitial fibrosis disease (UUO mice; 7-day model, oral or iv 5 mg/kg/24 hours) | reduction in AN/AR ratio as compared to PBS-treated animals ([1]; 10 mg/kg i.v.) | reduction in inflammation score as compared to PBS-treated animals ([1]; 10 mg/kg i.v., Day 7, 4 point inflammation scale) | inflammation and cytotoxic effects toward cardiomyocytes following myocardial infarction ([1]; myocardial ischemia and reperfusion injury) | degree of cardiac inflammation ([1]; rat, in vivo) | necrotic area to area at risk ratio (IA/AR) ([1]; rat, in vivo) | chronic renal injury (UUO mice; 5-day model, ip 300 ug/kg/48 hours) | UUO chronic renal injury (UUO mice; 7-day model, ip 300 ug/kg/48 hours) | reduction in AN/AR ratio as compared to PBS-treated animals ([1]; 160 μg/kg i.v.)
CYFDDSSNVLCKKYRS (disulfide 1-11 (inferred); not fully specified) [SEQ ID NO:45] | attenuated the severity of tubular damage | attenuated progression | significantly attenuated | 84% | 78% | ameliorate inflammation and cytotoxic effects | reduces | reduces |  |  | 
BMP-7: recombinant human mature BMP-7 (BMP-7 or TDF-1), positive control therapy (protein) STGSKQRSQNRSKTPKNQEALRMANVAENSSSDQRQACKKHELYVSFRDLGWQDWIIAPEGYAAYYCEGECAFPLNSYMNATNHAIVQTLVHFINPETVPKPCCAPTQLNAISVLYFDDSSNVILKKYRNMVVRACGCH |  |  |  |  |  |  |  |  | Reversal | Reversal | 7%
